# Test results as given in ChEMBL document CHEMBL4316628, “Bioactivity-guided identification of flavonoids with cholinesterase and β-amyloid peptide aggregation inhibitory effects from the seeds of Millettia pachycarpa” (Bioorg Med Chem Lett, 2019).
# pIC50, pKi: −log10 of the molar value. The source made the active and inactive calls. The rule behind the calls is not given here.
# What was measured:
# Cholinesterase [1] = molecular target: T1, Cholinesterase (Homo sapiens, UniProt P06276); experiment: Mixed type inhibition of BChE (unknown origin) using butyrylthiocholine iodide as substrate by Ellman's method based Lineweaver-Burk plot analysis
# T1 sequence (P06276 whole entry): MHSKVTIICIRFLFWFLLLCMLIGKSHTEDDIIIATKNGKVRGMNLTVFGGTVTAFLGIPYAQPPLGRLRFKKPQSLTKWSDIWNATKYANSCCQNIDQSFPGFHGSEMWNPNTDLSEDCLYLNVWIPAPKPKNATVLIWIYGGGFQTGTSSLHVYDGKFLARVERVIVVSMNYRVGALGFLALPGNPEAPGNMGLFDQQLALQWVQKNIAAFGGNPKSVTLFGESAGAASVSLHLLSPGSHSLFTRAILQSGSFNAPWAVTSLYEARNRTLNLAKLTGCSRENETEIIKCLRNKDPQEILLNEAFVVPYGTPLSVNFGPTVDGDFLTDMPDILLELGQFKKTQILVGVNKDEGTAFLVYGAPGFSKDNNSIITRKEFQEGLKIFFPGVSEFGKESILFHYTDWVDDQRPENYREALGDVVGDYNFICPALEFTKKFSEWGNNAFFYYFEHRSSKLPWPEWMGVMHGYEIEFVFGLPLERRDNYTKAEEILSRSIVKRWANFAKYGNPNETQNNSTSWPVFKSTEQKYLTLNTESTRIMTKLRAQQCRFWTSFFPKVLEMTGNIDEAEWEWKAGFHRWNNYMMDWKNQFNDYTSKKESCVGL
# [2] = molecular target: Amyloid-beta precursor protein (Homo sapiens) (UniProt P05067); experiment: Inhibition of amyloid beta (1 to 42) (unknown origin) self-aggregation at 40 uM incubated for 48 hrs by thioflavin-T fluorescence method
# Sequence of Amyloid-beta precursor protein (Homo sapiens) (P05067 whole entry): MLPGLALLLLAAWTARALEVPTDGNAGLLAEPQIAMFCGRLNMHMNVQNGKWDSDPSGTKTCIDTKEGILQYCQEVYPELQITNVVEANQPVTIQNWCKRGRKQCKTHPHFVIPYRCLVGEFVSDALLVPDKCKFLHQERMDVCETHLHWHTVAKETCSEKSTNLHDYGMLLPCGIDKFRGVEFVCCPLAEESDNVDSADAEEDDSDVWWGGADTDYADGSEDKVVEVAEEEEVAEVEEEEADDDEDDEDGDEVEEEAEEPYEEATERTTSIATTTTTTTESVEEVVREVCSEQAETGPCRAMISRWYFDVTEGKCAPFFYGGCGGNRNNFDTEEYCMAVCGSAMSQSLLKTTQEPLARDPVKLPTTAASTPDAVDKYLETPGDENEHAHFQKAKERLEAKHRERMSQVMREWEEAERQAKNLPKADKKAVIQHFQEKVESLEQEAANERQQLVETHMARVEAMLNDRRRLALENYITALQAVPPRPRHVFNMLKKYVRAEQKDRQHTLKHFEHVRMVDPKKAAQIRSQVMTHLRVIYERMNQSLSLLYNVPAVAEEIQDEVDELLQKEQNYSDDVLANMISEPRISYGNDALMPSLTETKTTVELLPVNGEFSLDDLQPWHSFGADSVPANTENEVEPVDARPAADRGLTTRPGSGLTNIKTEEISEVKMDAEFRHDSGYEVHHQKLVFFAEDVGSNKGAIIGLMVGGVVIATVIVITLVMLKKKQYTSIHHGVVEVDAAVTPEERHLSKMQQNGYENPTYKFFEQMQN
# Cholinesterase [3] = molecular target: T1, Cholinesterase; experiment: Inhibition of BChE (unknown origin) at 20 ug/mL using butyrylthiocholine iodide as substrate by spectrophotometry based Ellman's method
# Cholinesterase [4] = molecular target: T1, Cholinesterase; experiment: Inhibition of BChE (unknown origin) using butyrylthiocholine iodide as substrate by spectrophotometry based Ellman's method; settings: for pIC50: read-out: IC50
# Acetylcholinesterase [5] = molecular target: T2, Acetylcholinesterase (Homo sapiens, UniProt P22303); experiment: Inhibition of AChE (unknown origin) using acetylthiocholine iodide as substrate by spectrophotometry based Ellman's method; settings: for pIC50: read-out: IC50
# T2 sequence (P22303 whole entry): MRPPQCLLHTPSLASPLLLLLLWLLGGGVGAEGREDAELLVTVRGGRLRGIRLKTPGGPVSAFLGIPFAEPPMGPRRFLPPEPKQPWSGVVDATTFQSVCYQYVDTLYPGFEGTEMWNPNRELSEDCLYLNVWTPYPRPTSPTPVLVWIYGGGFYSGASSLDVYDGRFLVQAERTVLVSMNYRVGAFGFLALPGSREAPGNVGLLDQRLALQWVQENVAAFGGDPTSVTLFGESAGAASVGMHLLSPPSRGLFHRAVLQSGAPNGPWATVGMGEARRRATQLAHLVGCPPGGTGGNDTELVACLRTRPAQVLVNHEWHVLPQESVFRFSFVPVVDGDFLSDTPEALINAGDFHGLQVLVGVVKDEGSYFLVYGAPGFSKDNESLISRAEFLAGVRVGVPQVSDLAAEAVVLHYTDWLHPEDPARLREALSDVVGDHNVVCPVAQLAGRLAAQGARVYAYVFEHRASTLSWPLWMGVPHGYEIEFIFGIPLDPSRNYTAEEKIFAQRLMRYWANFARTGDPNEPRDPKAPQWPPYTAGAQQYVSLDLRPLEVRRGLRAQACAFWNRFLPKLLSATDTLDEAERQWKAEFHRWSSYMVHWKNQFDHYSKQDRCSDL
# [6] = molecular target: Amyloid-beta precursor protein (Homo sapiens) (UniProt P05067); experiment: Inhibition of amyloid beta (1 to 42) (unknown origin) self-aggregation at 20 uM incubated for 48 hrs by thioflavin-T fluorescence method
# Cholinesterase [7] = molecular target: T1, Cholinesterase; experiment: Binding affinity to BChE (unknown origin) assessed as reduction in intrinsic protein fluorescence at 25 degC by fluorescence spectrophotometry
# [8] = molecular target: Amyloid-beta precursor protein (Homo sapiens) (UniProt P05067); experiment: Inhibition of amyloid beta (1 to 42) (unknown origin) self-aggregation at 80 uM incubated for 48 hrs by thioflavin-T fluorescence method
# Cholinesterase [9] = molecular target: T1, Cholinesterase; settings: 100 ug/mL
# Description: Inhibition of BChE (unknown origin) at 100 ug/mL using butyrylthiocholine iodide as substrate by spectrophotometry based Ellman's method
# Acetylcholinesterase [10] = molecular target: T2, Acetylcholinesterase; experiment: Competitive type inhibition of AChE (unknown origin) using acetylthiocholine iodide as substrate by Ellman's method based Lineweaver-Burk plot analysis
# Acetylcholinesterase [11] = molecular target: T2, Acetylcholinesterase; experiment: Binding affinity to AChE (unknown origin) assessed as reduction in intrinsic protein fluorescence at 25 degC by fluorescence spectrophotometry
# [12] = molecular target: Amyloid-beta precursor protein (Homo sapiens) (UniProt P05067); experiment: Inhibition of amyloid beta (1 to 42) (unknown origin) self-aggregation incubated for 48 hrs by thioflavin-T fluorescence method
# Beta-secretase 1 = Beta-secretase 1 (Homo sapiens, UniProt P56817); experiment: Inhibition of BACE1 (unknown origin) expressed in baculovirus-expression system using Rh-EVNLDAEFK-Quencher substrate by FRET assay
# Sequence of Beta-secretase 1 (P56817 whole entry): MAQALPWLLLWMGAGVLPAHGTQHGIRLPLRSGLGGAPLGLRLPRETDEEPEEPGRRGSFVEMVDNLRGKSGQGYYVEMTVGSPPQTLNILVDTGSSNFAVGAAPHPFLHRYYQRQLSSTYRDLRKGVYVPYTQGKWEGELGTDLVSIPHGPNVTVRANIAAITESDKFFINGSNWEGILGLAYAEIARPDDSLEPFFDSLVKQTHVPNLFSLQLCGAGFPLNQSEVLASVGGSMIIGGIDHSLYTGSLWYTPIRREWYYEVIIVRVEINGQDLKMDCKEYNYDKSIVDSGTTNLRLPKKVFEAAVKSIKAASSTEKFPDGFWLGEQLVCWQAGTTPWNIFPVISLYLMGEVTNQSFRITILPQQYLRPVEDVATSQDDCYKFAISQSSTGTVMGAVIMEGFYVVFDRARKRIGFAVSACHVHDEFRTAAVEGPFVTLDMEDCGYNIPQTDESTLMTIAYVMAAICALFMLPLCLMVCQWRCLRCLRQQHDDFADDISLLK
SMILES,inhibition [2],inhibition (Cholinesterase [3]),pIC50 (Cholinesterase [4]),pIC50 (Acetylcholinesterase [5]),inhibition [6],inhibition [8],IC50 (Cholinesterase [4]),other results
COc1ccc(-c2coc3c4c(ccc3c2=O)OC(C)(C)C=C4)cc1OC,inactive,98.2%,5.63,3.88,inactive,inactive,–,pKi (Cholinesterase [1]): 6.04; pIC50 (Cholinesterase [7]): 5.11
COc1cc2c(cc1OC)[C@@H]1C(=O)c3ccc4c(c3O[C@@H]1CO2)C=CC(C)(C)O4 [DEGUELIN],–,14.2%,–,3.90,–,–,Not Active,–
COc1ccc2c3c1O[C@H]1C[C@@H](O)C=C[C@@]31CCN(C)C2,–,94.6%,–,–,–,–,–,inhibition (Cholinesterase [9]): 94.6%
CC1(C)C=Cc2c(ccc(C(=O)/C=C/c3ccc(O)cc3)c2O)O1,65.7%,86.5%,5.25,4.77,53.7%,73.3%,–,pKi (Acetylcholinesterase [10]): 5.13; pKi (Cholinesterase [1]): 5.46; Activity (Acetylcholinesterase [11]): Dose-dependent effect; pIC50 (Acetylcholinesterase [11]): 4.53; inhibition [12]: Dose-dependent effect; pIC50 (Beta-secretase 1): 5.01; Activity (Cholinesterase [7]): Dose-dependent effect; pIC50 (Cholinesterase [7]): 5.59
COC1=CC(=O)C(OC)(OC)C=C1[C@@]1(O)C(=O)c2ccc3c(c2O[C@@H]1CO)C=CC(C)(C)O3,–,17.1%,–,–,–,–,Not Active,IC50 (Acetylcholinesterase [5]): Not Active
COc1cc2c(cc1OC)[C@]1(O)C(=O)c3ccc4c(c3O[C@@H]1CO2)C=CC(C)(C)O4 [TEPHROSIN],–,16.2%,–,3.90,–,–,Not Active,–
COc1ccc(/C=C/C(=O)c2ccc3c(c2O)C=CC(C)(C)O3)cc1,–,37%,3.99,4.13,–,–,–,–
CC1(C)C=Cc2c(ccc3c2OC(c2ccc(O)cc2)CC3=O)O1 (centres undefined),63.5%,91.9%,4.94,–,50.9%,73.5%,–,pKi (Cholinesterase [1]): 5.43; IC50 (Acetylcholinesterase [5]): Not Active; pIC50 (Cholinesterase [7]): 5.45
COc1cc(/C=C/C(=O)CC(=O)/C=C/c2ccc(O)c(OC)c2)ccc1O,Active,–,–,–,Active,Active,–,–
COc1cc(OC)c(-c2coc3c4c(ccc3c2=O)OC(C)(C)C=C4)cc1OC,inactive,68.5%,4.66,3.92,inactive,inactive,–,–
C=C(C)[C@H]1Cc2c(ccc3c2O[C@@H]2COc4cc(OC)c(OC)cc4[C@]2(O)C3=O)O1 [ROTENOLONE],–,9.87%,–,–,–,–,Not Active,IC50 (Acetylcholinesterase [5]): Not Active
COc1ccc(C2CC(=O)c3ccc4c(c3O2)C=CC(C)(C)O4)cc1 (centres undefined),–,24.7%,3.65,4.04,–,–,–,–
